These are literature values, as cited in patent US10596120B2, “Pharmaceutical compositions” (Boehringer Ingelheim International GmbH, priority 2011, dated 2020).

For the data set the following is noted: metformin on its own, in the diabetic.

On to `CN(C)C(=N)N=C(N)N` [metformin], for which the “average improvement in the HbA1c value” was 1.0-1.5%.
